# Laboratory results reported in patent EP3838286B1, “ANTIMICROBIAL PEPTIDE FROM POLISTES GALLICUS VENOM AND ITS ANALOGS” (Latoxan, priority 2019, dated 2021).
# Where two headings read alike, the source gives them in different places. Square brackets hold non-standard residues; d marks the D form. Ends that are not written are not given here. Peptide text beside a SMILES is read from it.
# Experiments:
# [1] = test system: S. aureus
# [2] = test system: E. coli
# [3] = test system: P. aeruginosa
# [4] = test system: A.baumani
# [5] = test system: B. subtilis
# [6] = test system: C. farmeri
# [7] = test system: L. lactis
# [8] = test system: A. gandavensis
# [9] = test system: S. enterica
# [10] = test system: C. rodentium
# [11] = test system: P. aeruginosa FQR
# [12] = test system: S. flexneri
# [13] = test system: P. aeruginosa 01
# [14] = test system: E. coli EHEC K88
# [15] = test system: H. pylori
# [16] = Cytotoxicity assay (resazurin); format: cell-based; conditions: human
# Protocol: Normal human cells used were BEAS-2B (ATCC CRL-9609), IMR-90 (ATCC CCL-186) and Human Umbilical Vein Endothelial Cells (HUVEC) (from Sigma-Aldrich) corresponding respectively to human normal lung epithelial, normal lung fibroblast cells and human normal endothelial cells. All cells except HUVEC cells were cultured in Dulbecco's modified essential medium (DMEM) supplemented with 10% fetal calf serum (FCS), 1% L-glutamine and 1% antibiotics (all from Invitrogen). HUVEC cells were cultured in specific endothelial media (from Sigma Aldrich). Cells were seeded onto […] maintained in a 5% CO2 incubator at 37 °C. Cells grown on 25 cm^2 flasks were detached using trypsin-EDTA solution (from Thermofisher), counted using Mallassez counting chamber and seeded into 96-well cell culture plates (Greiner bio-one) at approximately 10,000 cells per well. The cells were left to grow for 48-72 h at 37 °C in a 5% CO2 incubator until they reached confluence. Plates were then aspirated and increasing concentrations of peptides diluted in culture media were added to the cells for 48 h at 37 °C in a 5% CO2 incubator. At the end of the incubation, wells were emptied and cell viability was evaluated using Resazurin based in vitro toxicity assay kit (from Sigma-Aldrich) following manufacturer's instructions. Briefly, Resazurin stock solution was diluted 1:10 in sterile PBS containing calcium and magnesium (PBS, pH 7.4) and empty wells were filled with 100 µL of the diluted solution. After 4 h incubation at 37 °C, fluorescence intensity was measured using microplate reader (Synergy Mx, Biotek) with an excitation wavelength of 530 nm and an emission wavelength of 590 nm. The fluorescence values were normalized by the controls (buffer treated cells) and expressed as percent viability. The IC50 values of peptides on cell viability (i.e. the concentration of derivative causing a reduction of 50% of cell viability) were determined using GraphPad® Prism 7 software. t-Test and two way ANOVA analyses were used to address the significant differences between mean values with significance set at p < 0.05.
# [17] = test system: V. alginolyticus
# [18] = test system: B. subtilis (Nisin-resistant)
# [19] = test system: M. smegmatis; conditions: 72 h
# [20] = test system: human erythrocytes; assay: Hemolytic activity assay; format: cell-based
# Protocol: The hemolytic activity of each peptide was determined by the leakage of hemoglobin from human erythrocytes (obtained from Divbioscience, NL) as previously described (Oyama et al., 2017 Biofilms Microbiomes, Dec 1;3:33).
# Briefly, human erythrocytes were washed 3 times with phosphate buffer saline (PBS) and concentrated using centrifugation at 800 g for 5 min. Human erythrocytes were then resuspended in PBS at a final concentration of 8 %. 100 µl of human erythrocytes were then added per well of sterile 96 well microplate already containing 15 µl of serially diluted antimicrobials (1:2 in distilled water). After 1 h at 37°C, the microplate was centrifuged at 800 g for 5 min. 100 µl were then carefully collected and transferred to a new 96 well microplate and OD was measured at 405 nm. Hemolysis caused by peptides was expressed as percentage of hemolysis; Triton-X100 at 0.1 % (v:v) was used as positive control and gave 100 % hemolysis. Hemolysis rate was determined as below: Hemolysis rate (%) = (A−A2)/(A1−A2) × 100% [formula] where A is the absorbance of indicator mixtures with different factors, A1 and A2 are the positive control, and the negative control, respectively.
# [21] = BEAS-2B normal lung epithelial cells, normal lung epithelium, read-out: Cytotoxicity IC50 (µM) BEAS
# [22] = HUVEC (human umbilical vein endothelial cells), normal endothelium, read-out: Cytotoxicity IC50 (µM) HUVEC
# [23] = IMR-90 normal lung fibroblast cells, read-out: Cytotoxicity IC50 (µM) IMR90
molecule,measurement,setting,value
KLLGLILI-NH2 [K1I8],MIC (µM) S. aureus,[1],25 µM
same,MIC (µM) E. coli,[2],50 µM
same,MIC (µM) P. aeruginosa,"[3]; Table 3, n=4",/ (« / » means MIC > 100µM)
Ac-IKAIKKLLKN-NH2 [Ac I1N10*],MIC (µM) A.baumani,[4],>100 µM
same,MIC (µM) E. coli,[2],100 µM
same,MIC (µM) P. aeruginosa,[3],50 µM
"ILKAIKK-NH2 [I1K7*, ILKAIKK]",MIC (µM) S. aureus,"[1]; Table 4, n=4",/ (« / » means MIC > 100µM)
same,MIC (µM) A.baumani,[4],100 µM
same,MIC (µM) E. coli,[2],100 µM
same,MIC (µM) P. aeruginosa,[3],100 µM
"CC[C@@H](C)[C@@H](N)C(=O)N[C@H](CC(C)C)C(=O)N[C@H](CO)C(=O)N[C@H](C)C(=O)N[C@@H](C(=O)N[C@H](CC(C)C)C(=O)NCC(=O)N[C@H](CC(C)C)C(=O)N[C@H](CC(C)C)C(=O)N[C@H](CCCCN)C(=O)N[C@H](CC(N)=O)C(=O)N[C@H](CC(C)C)C(N)=O)[C@H](C)CC [(i1I12)enantio, ilsailgllknl] (H-[dI][dL][dS][dA][dI][dL]G[dL][dL][dK][dN][dL]-NH2)",MIC (µM) B. subtilis,[5],3.13 µM
same,MIC (µM) S. aureus,[1],6.25 µM
same,MIC (µM) E. coli,[2],100 µM
same,MIC (µM) P. aeruginosa,[3],100 µM
ILKAIKKLLKN-NH2 [I1N11],MBC (µM) C. farmeri,[6],12.5 µM
same,MIC (µM) C. farmeri,[6],12.5 µM
same,MBC (µM) L. lactis,[7],3.12 µM
same,MIC (µM) L. lactis,[7],1.5 µM
same,MBC (µM) A. gandavensis,[8],3.12 µM
same,MIC (µM) A. gandavensis,[8],3.12 µM
same,MBC (µM) S. enterica,[9],50 µM
same,MIC (µM) S. enterica,[9],100 µM
same,MBC (µM) C. rodentium,[10],50 µM
same,MIC (µM) C. rodentium,[10],50 µM
same,MBC (µM) P. aeruginosa FQR,[11],100 µM
same,MIC (µM) P. aeruginosa FQR,[11],25 µM
same,MBC (µM) S. flexneri,[12],50 µM
same,MIC (µM) S. flexneri,[12],50 µM
same,MBC (µM) P. aeruginosa 01,[13],50 µM
same,MIC (µM) P. aeruginosa 01,[13],25 µM
same,MBC (µM) E. coli EHEC K88,[14],>100 µM
same,MIC (µM) E. coli EHEC K88,[14],100 µM
same,MBC (µM) H. pylori,[15],100 µM
same,MIC (µM) H. pylori,[15],100 µM
same,CC50 at 48 h,[16]; [21],821 µM
same,CC50 at 48 h,[16]; [22],826 µM
same,CC50 at 48 h,[16]; [23],892 µM
same,MBC (µM) V. alginolyticus,[17],0.78 µM
same,MIC (µM) V. alginolyticus,[17],0.78 µM
same,MBC (µM) B. subtilis (Nisin-resistant),[18],12.5 µM
same,MIC (µM) B. subtilis (Nisin-resistant),[18],12.5 µM
same,MIC (µM) M. smegmatis,[19],25 µM
same,MBC (µM) P. aeruginosa,[3],6.25 µM
same,MIC (µM) P. aeruginosa,[3],6.25 µM
same,MIC PA,[3],6.25 µM
ILKAIKKLLK-NH2 [I1K10*],hemotoxicity: no toxicity towards red blood cells up to,[20]; highest concentration tested,> 10 mM
"CC[C@H](C)[C@H](NC(=O)CN)C(=O)NCC(=O)N[C@@H](C)C(=O)N[C@H](C(=O)N[C@@H](CC(C)C)C(=O)N[C@@H](CCCCN)C(=O)N[C@H](C(=O)N[C@@H](CC(C)C)C(=O)N[C@H](C(=O)N[C@H](C(=O)NCC(=O)N[C@@H](CC(C)C)C(=O)N1CCC[C@H]1C(=O)N[C@@H](C)C(=O)N[C@@H](CC(C)C)C(=O)N[C@H](C(=O)N[C@@H](CO)C(=O)N[C@@H](Cc1c[nH]c2ccccc12)C(=O)N[C@H](C(=O)N[C@@H](CCCCN)C(=O)N[C@@H](CCCNC(=N)N)C(=O)N[C@@H](CCCCN)C(=O)N[C@@H](CCCNC(=N)N)C(=O)N[C@@H](CCC(N)=O)C(=O)N[C@@H](CCC(N)=O)C(N)=O)[C@@H](C)CC)[C@@H](C)CC)[C@@H](C)O)[C@@H](C)O)C(C)C)C(C)C [Melittine, Melittin, reference compound]",MIC against B. subtilis,[5],1.56 µM
ILSAILGLL-NH2 [Peptides I1L9],MIC (µM) B. subtilis,[5],100 µM
same,MIC (µM) S. aureus,[1],100 µM
LKAIKKLL-NH2 [L2L9*],MIC (µM) E. coli,[2],100 µM
same,MIC (µM) P. aeruginosa,[3],25 µM
CC[C@@H](C)[C@@H](N)C(=O)N[C@@H](CC(C)C)C(=O)N[C@@H](CCCCN)C(=O)N[C@@H](C)C(=O)N[C@H](C(=O)N[C@@H](CCCCN)C(=O)N[C@@H](CCCCN)C(=O)N[C@@H](CC(C)C)C(=O)N[C@@H](CC(C)C)C(=O)N[C@H](CCCCN)C(N)=O)[C@@H](C)CC [i1k10*] (H-[dI]LKAIKKLL[dK]-NH2),MBC (µM) C. farmeri,[6],3.12 µM
same,MIC (µM) C. farmeri,[6],3.12 µM
same,MBC (µM) L. lactis,[7],1.56 µM
same,MIC (µM) L. lactis,[7],0.78 µM
same,MBC (µM) A. gandavensis,[8],0.78 µM
same,MIC (µM) A. gandavensis,[8],0.78 µM
same,MBC (µM) S. enterica,[9],12.5 µM
same,MIC (µM) S. enterica,[9],12.5 µM
same,MBC (µM) C. rodentium,[10],12.5 µM
same,MIC (µM) C. rodentium,[10],12.5 µM
same,MBC (µM) P. aeruginosa FQR,[11],25 µM
same,MIC (µM) P. aeruginosa FQR,[11],3.12 to 6.25 µM
same,MIC (µM) A.baumani,[4],100 µM
same,MBC (µM) S. flexneri,[12],6.25 µM
same,MIC (µM) S. flexneri,[12],3.12 to 6.25 µM
same,MBC (µM) P. aeruginosa 01,[13],12.5 µM
same,MIC (µM) P. aeruginosa 01,[13],3.125 µM
same,MBC (µM) E. coli EHEC K88,[14],6.25 µM
same,MIC (µM) E. coli EHEC K88,[14],6.25 to 12.5 µM
same,MBC (µM) H. pylori,[15],12.5 µM
same,MIC (µM) H. pylori,[15],12.5 µM
same,CC50 at 48 h,[16]; [21],867 µM
same,CC50 at 48 h,[16]; [22],814 µM
same,CC50 at 48 h,[16]; [23],783 µM
same,MBC (µM) V. alginolyticus,[17],0.78 µM
same,MIC (µM) V. alginolyticus,[17],0.78 µM
same,MIC (µM) E. coli,[2],50 µM
same,MBC (µM) B. subtilis (Nisin-resistant),[18],3.12 µM
same,MIC (µM) B. subtilis (Nisin-resistant),[18],3.12 µM
same,MIC (µM) M. smegmatis,[19],12.5 µM
same,MBC (µM) P. aeruginosa,[3],1.5 µM
same,MIC PA,[3],0.78 µM
RLLGLWLW-NH2 [LTX-gallicune-2 (R1W8)],MHC50,"[20]; human erythrocytes, 50% lysis",225 µM
same,MHC100,"[20]; human erythrocytes, 100% lysis",1000 µM
same,times less toxic (hemotoxic) than Gallicus-CP,"[20]; human erythrocytes, Fig 3",20 times
LNKLLGLIASLI-NH2 [L12I1],MIC (µM) P. aeruginosa,[3],50 µM
LSAILGLLK-NH2 [Peptides L2K10],MIC (µM) B. subtilis,[5],100 µM
